Source: publication PMC12026874, “Microstructure of Sea Cucumber Parastichopus tremulus Peptide Hydrogels and Bioactivity in Caco-2 Cell Culture Model” (Gels, 2025)
Entries after “also recorded” stand apart in the source; their conditions may differ. Where no end group is shown, it is not given here.

What was measured:
[1] = Experimental solubility and minimum gelation conditions; type: physicochemical; settings: for solubility in sodium phosphate buffer (NaPB): 75 mM sodium phosphate buffer pH 7.4 (also ORAC buffer), 1–15 mM; for peptide concentration at which gelation occurs in NaPB: 75 mM sodium phosphate buffer pH 7.4, room temperature, no DMSO
[2] = accompanying manufacturer information; ref ProteoGenix SAS; cited from earlier work
Method: The peptide synthesis was carried out using ProteoGenix SAS, (Schiltigheim France), followed by acetate N-terminal blocking and chromatography purification (LC-MS purity chromatograms per peptide are included in the Supplementary Materials). Thus, 1 g of lyophilized powder at 80% or a higher purity (technical grade) in sterile plastic bottles was provided by ProteoGenix for further research. The peptides were stored at −20 °C, opened only prior to the dissolution preparation and ...

[3] = biological target: T1, angiotensin-I converting enzyme (ACE I) (Oryctolagus cuniculus, UniProt P12822); assay: ACE I inhibitory activity (cleavage of FA-PGG); type: biochemical; settings: for IC50: linear regression over 7, 8.5 and 10 mg/mL, substrate FA-PGG, three independent replicates, read-out: ACE I inhibition IC50 (converted)
T1 construct: purchased Sigma Aldrich A6778
T1 sequence (P12822 34-1310): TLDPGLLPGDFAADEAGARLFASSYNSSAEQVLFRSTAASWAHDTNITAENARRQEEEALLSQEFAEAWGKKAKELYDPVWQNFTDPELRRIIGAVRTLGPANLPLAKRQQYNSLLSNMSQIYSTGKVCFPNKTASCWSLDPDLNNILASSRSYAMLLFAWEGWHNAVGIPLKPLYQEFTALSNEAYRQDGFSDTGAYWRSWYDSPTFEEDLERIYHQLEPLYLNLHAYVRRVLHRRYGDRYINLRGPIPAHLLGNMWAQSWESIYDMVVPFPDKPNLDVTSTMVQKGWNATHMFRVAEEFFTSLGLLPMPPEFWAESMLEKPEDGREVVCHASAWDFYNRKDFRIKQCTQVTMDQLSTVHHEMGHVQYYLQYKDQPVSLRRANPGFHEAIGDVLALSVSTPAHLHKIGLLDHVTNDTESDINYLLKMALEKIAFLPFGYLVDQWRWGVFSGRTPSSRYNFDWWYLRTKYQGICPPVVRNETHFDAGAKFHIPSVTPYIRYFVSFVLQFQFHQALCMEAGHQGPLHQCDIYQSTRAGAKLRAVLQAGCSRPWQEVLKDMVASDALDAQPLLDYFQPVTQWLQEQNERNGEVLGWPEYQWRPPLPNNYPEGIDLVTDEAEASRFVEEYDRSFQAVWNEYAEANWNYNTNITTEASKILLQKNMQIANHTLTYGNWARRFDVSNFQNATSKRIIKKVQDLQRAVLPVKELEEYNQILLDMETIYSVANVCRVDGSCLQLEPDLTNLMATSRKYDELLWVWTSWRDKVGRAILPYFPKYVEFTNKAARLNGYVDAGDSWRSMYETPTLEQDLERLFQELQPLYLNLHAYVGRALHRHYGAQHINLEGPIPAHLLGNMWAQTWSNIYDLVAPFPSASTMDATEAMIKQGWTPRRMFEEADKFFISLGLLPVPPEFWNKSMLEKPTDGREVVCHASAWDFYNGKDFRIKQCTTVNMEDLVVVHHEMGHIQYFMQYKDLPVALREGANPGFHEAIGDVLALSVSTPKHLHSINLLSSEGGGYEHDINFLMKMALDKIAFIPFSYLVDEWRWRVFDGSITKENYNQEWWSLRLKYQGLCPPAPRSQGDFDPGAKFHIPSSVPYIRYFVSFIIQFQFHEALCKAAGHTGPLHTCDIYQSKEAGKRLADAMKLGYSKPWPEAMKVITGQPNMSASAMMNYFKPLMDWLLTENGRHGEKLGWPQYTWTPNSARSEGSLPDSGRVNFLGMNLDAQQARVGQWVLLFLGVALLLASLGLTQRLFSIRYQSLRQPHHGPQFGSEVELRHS
Method: For the angiotensin-I converting enzyme (ACE I) inhibitory activity measurements, the peptides were dissolved as described for the ORAC assay. As the highest possible concentration of the peptides without gel formation was 10 mg/mL and no activity could be detected at 5 mg/mL, the peptides were assessed at 7, 8.5, and 10 mg/mL in three independent replicates. The substrate N-[3-(2-furyl) acryloyl]-L-phenylalanyl-glycylglycine (FA-PGG; Sigma Aldrich F7131) was prepared at 0.88 mM in 50 mM Tris-Cl, pH 7.5, and 0.3 M NaCl. In 96-well plates, 10 µL of the samples and their respective buffers as controls were combined with 10 µL of ACE I (ACE; Sigma Aldrich A6778) at 0.25 U/mL and 150 µL of a preheated substrate solution. The absorbance was continuously measured every minute at 340 nm for 30 min in a Synergy HTX S1LFA plate reader. Linear regression curves were obtained for the decrease in absorbance over time for every sample and the % ACE I inhibition was calculated as:% ACE I inhibition = (1 − (ΔA340 nm protein solution/ΔA340 nm negative control)) × 100
Captopril was used to verify the functionality of the assay, and a logarithmic inhibition curve was obtained using 340, 34, 17, and 8.5 µM captopril. IC 50 values were calculated for the peptides for which a positive linear regression line could be obtained based on their ACE inhibition (%) at the assessed concentrations.

Substance | solubility in sodium phosphate buffer (NaPB) ([1]; room temperature, visual) | peptide concentration at which gelation occurs in NaPB [1] | water solubility [2] | IC50 [3] | individual peptide solubility ([1]; both buffers: Ca2+-containing artificial sea water pH 7.7 and 75 mM sodium phosphate buffer pH 7.4, 21 °C, visual, three repetitions) | inhibition at 10000 µg/mL ([3]; at 10 mg/mL, mean of three replicates) | solubility in Ca2+-containing buffer ([1]; 1 mM peptide, artificial sea water pH 7.7, no DMSO, room temperature, visual) | peptide concentration needed for gelation (minimal gelation conditions) ([1]; Ca2+-containing buffer (artificial sea water, 11 mM Ca2+, pH 7.7), room temperature 21 °C, mix at 1:1:1:1 ratio)
Ac-EMLWLSDGSMGFAEDTDAAFLPGDTIFGRI [Peptide P1] | dissolved after gentle agitation without any need for DMSO addition | above 15 mM | poor |  |  |  |  | 
Ac-QNGEYGCVADTPNLLYAFKILDYRQ [Peptide P4] | dissolved after gentle agitation without any need for DMSO addition | above 15 mM | poor | 8.96 mM |  |  |  | 
Ac-RAGQPITAFLVRD [Peptide P2] | insoluble; also recorded: insolubility |  |  | 4.78 mM | low | 75% |  | 
Ac-SRPSDPASAVAGEDYTGISRN [Peptide P3] | dissolved after gentle agitation without any need for DMSO addition | above 15 mM |  |  |  |  | fully soluble | 15 mM
